The test system of the assay is PCA response. In words: Rat Passive Cutaneous Anaphylaxis (PCA) test. In kind it is in vivo, Wistar rats. The settings on record: iv. Here is the method: All of the 2-nitro indane-1,3-diones prepared in the preceeding Examples were submitted for biological testing. The test system was the Rat Passive Cutaneous Anaphylaxis (PCA) test described below in (II).
7, 681Serum containing heat labile homocytotropic antibody was raised in rats by a method similar to that used by Mota. (I. Mota Immunology 1964, 7, 681).
Male Wistar rats of 250-300g, were injected intraperitoneally with 0.5ml. of Bordetella pertussis vaccine (containing 4 × 10^10 dead oranism per ml. and subcutaneously with 0.5ml. of an emulsion of 100mg. of ovalbumin in 2ml of saline and 3ml of incomplete Freunds' adjuvant. Rats were bled by cardiac puncture on day 18, the blood was pooled and separated and serum stored at -20° and thawed only once before use.
II. The P.C.A. test was similar to that described by Ovary and Bier (A. Ovary and O. E. Bier. Proc. Soc. Exp. Biol. Med. 1952, 81, 584) and Goose and Blair (J. Goose and A. M. J. N Blair Immunology 1969, 16, 749).
0.1ml of each of six twofold serial dilutions of the serum in 0.9% saline were injected intradermally into separate sites on the shaved dorsal surface of 250-350g. Wistar rats. 72 hours later the animals were challenged by i.v. injection of 0.3ml of 1% ovalbumin mixed with 0.1ml of a 5% solution of pontamine sky blue dye both in isotonic saline buffered with pH. 7.2 Sorenson buffer (P.B.S.). The rats were killed after 20 minutes and the diameter of the blue wheals at the antibody injection sites were measured. The starting dilution of the serum was adjusted so that there was no response, after challenge, at the site of injection of the highest dilution and a maximum response at the lowest dilution. Typically six twofold serial dilutions of the serum from one-fourth to […] were used.
Compounds were tested for their ability to reduce the diameter of the wheals at the injection sites of dilutions of antibody which on all the controls have less than maximum response. Amounts of the compounds were administered to rats each amount to a test group of six animals at a specified time prior to intravenous challenge with ovalbumin. The diameters of the blue wheals which developed on the test group of animals were compared with those on a control group of six animals treated in the same way as the test group, but which had not received the compound under test.
% Inhibition of P.C.A. = 100 (1 - a/b)
a = The mean of the sum of the diameters of the wheals produced in the test group of animals at those antibody sites where all the control group of animals gave less than maximum response.
b = The mean of the sum of diameters of the wheals produced in the control group of animals at those antibody sites where all the animals in the group gave less than maximum response.
The preferred method of administration was as a solution of the test compound dissolved in pH 7.2 buffer and neutralised with sodium bicarbonate. For those compounds having insoluble sodium salts, the salts were isolated by reaction of the free nitro compound with 2.5N sodium hydroxide and the filtered sodium salt washed free of alkali with water. The dried salts were then administered as a suspension in 1% methyl cellulose.

[1] abbreviates: 0 h, Time 0 mins (prior to i.v. ovalbumin challenge).
The mark [2] stands for this setting: 0.5 h, Time 30 mins (prior to i.v. ovalbumin challenge).
[3] abbreviates: 1 h, Time 60 mins (prior to i.v. ovalbumin challenge).

The inhibition in vivo is the drop in the measured response relative to a control, in per cent. For the molecule `CC1=C(C)C[C@H]2C(=O)C([N+](=O)[O-])C(=O)[C@H]2C1` (relative stereo) [1(b), 5,6-Dimethyl-2-nitro cis-3a,4,7,7a-tetrahydroindane-1,3-dione], under setting [1], the inhibition in vivo at 25 mg/kg worked out at 16% and the inhibition in vivo at 100 mg/kg stood at 61%. Besides, under setting [2], the inhibition in vivo at 25 mg/kg worked out at 6% and the inhibition in vivo at 100 mg/kg turned out to be 42%.
The corresponding values for `CC1C[C@@H]2C(=O)C([N+](=O)[O-])C(=O)[C@@H]2CC1C` (stereo partly drawn) [2(b), 5,6-Dimethyl cis-hexahydro-2-nitro indane-1,3-dione] are 7%, 31%, 6% and 37%.
In the same order, the values of `CC1C=CC(C)[C@@H]2C(=O)C([N+](=O)[O-])C(=O)[C@H]12` (stereo partly drawn) [3(b), 4,7-Dimethyl-2-nitro cis-3a,4,7,7a-tetrahydroindane-1,3-dione] are -8%, -8%, 7% and -1%.
For `CC1CCC(C)[C@@H]2C(=O)C([N+](=O)[O-])C(=O)[C@H]12` (stereo partly drawn) [4(b), 4,7-Dimethyl cis-hexahydro-2-nitro indane-1,3-dione], the inhibition in vivo at 25 mg/kg reads like this: under setting [1], 4%; under setting [3], 13%. Further, the inhibition in vivo at 100 mg/kg under setting [1] amounted to 19% and the inhibition in vivo at 100 mg/kg under setting [3] came out at 11%.
In the case of `O=C(O)C1C=CC[C@@H]2C(=O)C([N+](=O)[O-])C(=O)[C@H]12` (stereo partly drawn) [5(b), 4-Carboxy-2-nitro cis-3a,4,7,7a-tetrahydroindane-1,3-dione], under setting [1], the inhibition in vivo at 25 mg/kg came to 2% and the inhibition in vivo at 100 mg/kg is -3%. Besides, under setting [2], the inhibition in vivo at 25 mg/kg was -1% and the inhibition in vivo at 100 mg/kg was -6%.
Turning to `O=C1C2C3C=CC(C3)C2C(=O)C1[N+](=O)[O-]` (stereo not shown) [6(b), 4-Nitro tricyclo [5,2,1,0^2,6] dec-8-ene-3,5-dione], under setting [1], the inhibition in vivo at 25 mg/kg was -9% and the inhibition in vivo at 100 mg/kg turned out to be 4%. Moreover, under setting [3], the inhibition in vivo at 25 mg/kg was -9% and the inhibition in vivo at 100 mg/kg was found to be 17%.
Turning to `O=C1C2C3CCC(C3)C2C(=O)C1[N+](=O)[O-]` (stereo not shown) [7(b), 4-Nitro tricyclo [5,2,1,0^2,6] decane-3,5-dione], the inhibition in vivo at 25 mg/kg is, setting by setting: under setting [1], 8%; under setting [2], -3%. Moreover, the inhibition in vivo at 100 mg/kg turned out to be 26% under setting [1] and 9% under setting [2].
`CC1C=CC[C@@H]2C(=O)C([N+](=O)[O-])C(=O)[C@H]12` (stereo partly drawn) [8(b), 4-Methyl-2-nitro-cis-3a,4,7,7a-tetrahydroindane-1,3-dione]: under setting [1], the inhibition in vivo at 25 mg/kg came to 12% and the inhibition in vivo at 100 mg/kg is 41%. Also, under setting [2], the inhibition in vivo at 25 mg/kg came to 13% and the inhibition in vivo at 100 mg/kg came to 52%.
The corresponding values for `COC(=O)C1C=CC[C@@H]2C(=O)C([N+](=O)[O-])C(=O)[C@H]12` (stereo partly drawn) [9(b), 4-Carbomethoxy-2-nitro-cis-3a, 4,7,7a-tetrahydroindane-1,3-dione] are 2%, 10%, -9% and -5%.
The corresponding values for `CC(=O)OC1CCC[C@@H]2C(=O)C([N+](=O)[O-])C(=O)[C@H]12` (stereo partly drawn) [10(b), 4-Acetoxy-cis-hexahydro-2-nitro-indane-1,3-dione] are 12%, 11%, 17% and 20%.
In the same order, the values of `O=C1C2C3C=CC(CC3)C2C(=O)C1[N+](=O)[O-]` (stereo not shown) [12(b), 4-Nitro tricyclo [5,2,2,0^2,6] undec-8-ene-3,5-dione] are 0%, -3%, 29% and 32%.
Consider `O=C1C2C3CCC(CC3)C2C(=O)C1[N+](=O)[O-]` (stereo not shown) [13(b), 4-Nitro tricyclo [5,2,2,0^2,6] undecane-3,5-dione], for which the inhibition in vivo at 25 mg/kg runs as follows: under setting [1], 14%; under setting [2], 13%. For the same molecule, the inhibition in vivo at 100 mg/kg was 8% under setting [1] and 29% under setting [2].
Turning to `CC1CCC[C@@H]2C(=O)C([N+](=O)[O-])C(=O)[C@H]12` (stereo partly drawn) [II(b), 4-Methyl-2-nitro-cis-hexahydroindane-1,3-dione], the inhibition in vivo at 25 mg/kg was -13% under setting [1] and -8% under setting [2]. The inhibition in vivo at 100 mg/kg under setting [1] is 11% and the inhibition in vivo at 100 mg/kg under setting [2] amounted to 17%.

The record behind these values is patent US4005219A, “Pharmaceutical compositions and their administration for the prophylaxis of asthma, hayfever and rhinitis” (Beecham Group Limited, priority 1974, dated 1977).
